Assay results from US11931335B2, “Enhancing autophagy or increasing longevity by administration of urolithins or precursors thereof” (Amazentis SA, priority 2012, dated 2024).

Key:
aged C57BL/6J mice = experiment: Running wheel activity in aged high fat diet mice; type: in vivo, mouse; conditions: 50 mg/kg/day, 30 weeks, dark phase of day 2, FIG. 21
Procedure: To examine the effects of urolithin A treatment on motor activity in aged mammals 17-month-old C57BL/6J mice were treated with either a high fat rodent diet or a high fat rodent diet containing urolithin A mixed with food to reach a dosing of 50 mg/kg/day delivered to the mice.
Following 30 weeks of treatment with urolithin A, mice were housed individually and a 23 cm diameter running wheel was placed in the cage of each mouse. Spontaneous exercise activity was measured continuously over a two day period allowing the capture of the circadian rhythm of the exercise activity. Afterwards, mice were returned to their home cages.
Mice became habituated to the presence of the activity wheel on day 1. To measure the effect of urolithin A treatment on activity as well as muscle function, the cumulative distance that animals covered during the peak running period (dark phase) of day 2 was measured.

[1] = system: mitochondria in muscle of C. elegans strain SJ4103; experiment: Mitochondrial GFP reporter in muscle of C. elegans; type: in vivo; conditions: 50 μM from eggs, GFP after one day of adulthood; FIG. 7
Procedure: The worms were treated from eggs to the first day of adulthood. The strains used were the SJ4103 (zcIs14[myo-3::GFP(mit)]), which is a stable transgenic line expressing a mitochondrially localized green fluorescent protein (GFP) with a cleavable mitochondrial import signal peptide under the control of the specific body wall muscle promoter myo-3. GFP expression and quantification was carried out according to the protocol previously described. […] Fluorimetric assays were performed using a Victor X4 multilabel plate reader (Perkin-Elmer Life Science). Eighty worms were picked at random (20 worms per well of a black-walled 96-well plate), and each well was read four times and averaged.

C57BL/6J mice = experiment: Spontaneous running wheel activity in young mice; type: in vivo, mouse; conditions: for increase over untreated controls in the cumulative distance covered: 55 mg/kg/day in food, 11 weeks
Procedure: To examine the effect of urolithin A treatment on activity and muscle function in mammals, 10-week-old C57BL/6J mice were treated with either a standard rodent diet or a diet containing urolithin A mixed with food to reach a dosing of 55 mg/kg/day delivered to the mice. Following 11 weeks of treatment with urolithin A, a 23 cm in diameter running wheel was placed in the cage of each mouse. Spontaneous exercise activity was measured over a five day period at 20 min intervals, allowing the capture of the circadian rhythm of the exercise activity.

[2] = system: primary mouse hepatocytes; experiment: Autophagy western blot in primary hepatocytes; type: cell-based; conditions: 16 hour
Procedure: Isolated primary hepatocytes were cultured in Medium 199 including 4.5 g/L glucose, 10% fetal calf serum, 0.1 mM NEAA, 10 mM HEPES and 50 μg/mL gentamicin. These cells were then treated with either 10 μM, 20 μM or 50 μM of urolithin A for a 16 hour period, after which cells were lysed and prepared for Western Blot analysis.
Protein expression levels were examined for autophagy related proteins LC3-I and II (Cell Signaling antibody #4108), p62 (Cell Signalling antibody #5114), AMPKα (Cell Signaling antibody #2603), and p-AMPKα(Cell Signaling antibody #2531). The housekeeping protein, HSP90 (BD Transduction Laboratories antibody #610418) level was measured as a loading control.

[3] = system: Human Aortic Endothelial Cells (HAOEC); experiment: Autophagy western blot in human aortic endothelial cells; type: cell-based; conditions: 16 hours
Procedure: Human Aortic Endothelial Cells (HAOEC) are primary endothelial cells isolated from normal human aorta. They were sourced from Cell Applications Inc. (CAI), San Diego, USA and obtained cryopreserved at the second passage from the European Collection of Cell Cultures (ECACC). The cells were thawed and cultured with Endothelial Cell Growth Medium, provided by the ECACC, catalog number 06091509 (CAI No. 211-500), in a 37° C., 5% CO2 humidified incubator; media was changed 24 hours after thawing. Endothelial Cell Growth Medium was changed every other day until the cells reached 80% confluency. Cells were then subcultured into four 6-well dishes and after overnight incubation were treated with different concentrations of urolithin A, 10 μM, 20 μM, and 50 μM, or a DMSO control for a period of 16 hours, 3 wells per treatment. Control cells were treated with DMSO at an equivalent final concentration for the same period and served as the untreated control.
At the end of treatment, cells were lysed with RIPA buffer and applied to SDS-PAGE and analyzed by western blot. Protein expression levels were examined for autophagy-related proteins LC3-I and LC3-II (Cell Signaling antibody #4108), and p62 (Cell Signaling antibody #5114). The housekeeping protein, HSP90 (BD Transduction Laboratories antibody #610418) level was measured as a loading control.

Compound: O=c1oc2cc(O)ccc2c2ccc(O)cc12 [Urolithin A, urolithin A]
- increase in cumulative distance run (aged C57BL/6J mice): 57%
- expression of the mitochondrial GFP reporter (myo-3 promoter) [1]: striking increase in GFP expression
- increase over untreated controls in the cumulative distance covered (C57BL/6J mice; final two days): 29%
- increase over untreated controls in the cumulative distance covered (C57BL/6J mice; initial 3 days, FIG. 20): 25%
- increase in spontaneous voluntary running on a running wheel (C57BL/6J mice; 55 mg/kg/day, five-day period, FIG. 20): at least 25%
- P62 protein levels ([2]; 10 μM, 20 μM or 50 μM): decrease
- ratio of LC3-II to LC3-I ([2]; 10 μM, 20 μM or 50 μM, FIG. 15): dose-dependent effect and increase
- ratio of p-AMPKα/AMPK-u vs control cells ([2]; 20 and […]): above 10 fold
- levels of p62 ([3]; 10 μM, 20 μM, and 50 μM): decrease
- ratio of LC3-II to LC3-I, induction ([3]; 50 μM of urolithin A, FIG. 18): ≤ 3 fold
